Results from US4097595A, “7-Amino-thiazolyl acetamido cephalosporanic acids” (Roussel Uclaf, priority 1976, dated 1978).
In brackets after ≈: the same amount, converted by molar mass. Like-named read-outs stand apart in the source and are kept apart here.

Tests used:
Format in all cases: cell-based
[1] = tested on: Escherichia Coli UC 1 020; experiment: MIC, dilution method in liquid media, Escherichia Coli UC 1 020
Experimental: (§1) A series of tubes were prepared with the same quantity of sterile nutrive media and increasing quantities of the test product was distributed to each tube. Then, each tube was seeded with a bacterial strain and after incubation at 37° C for 24 or 48 hours, the inhibition of the growth was determined by transillumination which permitted determination of the minimum inhibitory concentrations (M.I.C.) in μg/ml.

[2] = tested on: Bacillus subtilis; experiment: MIC, dilution method in liquid media, Bacillus subtilis
Experimental: as §1

[3] = tested on: Klebsiella pneumoniae 52 145; experiment: MIC, dilution method in liquid media, Klebsiella pneumoniae 52 145
Experimental: as §1

[4] = tested on: Staphylococcus aureus UC 1128 (penicillin resistant); experiment: MIC, dilution method in liquid media, Staphylococcus aureus UC 1128, penicillin resistant
Experimental: as §1

[5] = tested on: Streptococcus faecalis 5 432; experiment: MIC, dilution method in liquid media, Streptococcus faecalis 5 432
Experimental: as §1

[6] = tested on: Proteus mirabilis (indol); experiment: MIC, dilution method in liquid media, Proteus mirabilis (indol)
Experimental: as §1

[7] = tested on: Salmonella Typhimurium; experiment: MIC, dilution method in liquid media, Salmonella Typhimurium; settings: Salmonella enterica, strain 420 (Tables II, IV)
Experimental: as §1

[8] = tested on: Streptococcus pyogenes A 561; experiment: MIC, dilution method in liquid media, Streptococcus pyogenes A 561
Experimental: as §1

[9] = tested on: Staphylococcus aureus UC 1 061 (penicillin sensible); experiment: MIC, dilution method in liquid media, Staphylococcus aureus UC 1061, penicillin sensible; settings: penicillin sensible
Experimental: as §1

[10] = tested on: Escherichia Coli (T) 0 26 B 6; experiment: MIC, dilution method in liquid media, Escherichia Coli (T) 026 B6
Experimental: as §1

[11] = tested on: Staphylococcus aureus 54 146; experiment: MIC, dilution method in liquid media, Staphylococcus aureus 54 146
Experimental: as §1

[12] = tested on: Escherichia Coli UC 1 261; experiment: MIC, dilution method in liquid media, Escherichia Coli UC 1 261; settings: read-out: MIC
Experimental: as §1

[13] = tested on: Escherichia Coli R 55 123 D; experiment: MIC, dilution method in liquid media, Escherichia Coli R 55 123 D; settings: COLIR55123D
Experimental: as §1

[14] = tested on: Bacillus subtilis ATCC 6 633; experiment: MIC, dilution method in liquid media, Bacillus subtilis ATCC 6 633
Experimental: as §1

[15] = tested on: Staphylococcus aureus ATCC 6 538; experiment: MIC, dilution method in liquid media, Staphylococcus aureus ATCC 6 538
Experimental: as §1

[16] = tested on: Streptococcus faecalis 99 F 74; experiment: MIC, dilution method in liquid media, Streptococcus faecalis 99 F 74; settings: Enterococcus faecalis
Experimental: as §1

[17] = tested on: Serratia RG 2 532; experiment: MIC, dilution method in liquid media, Serratia RG 2 532
Experimental: as §1

[18] = Klebsiella pneumoniae, 52145, 24 h, read-out: MIC
[19] = Klebsiella pneumoniae, 52145, 48 h, read-out: MIC
[20] = Enterococcus faecalis, 5432, 24 h, read-out: MIC
[21] = Staphylococcus aureus, 54146, 24 h, read-out: MIC
[22] = Staphylococcus aureus, 54146, 48 h, read-out: MIC

SMILES	MIC [3, 18]	MIC [3, 19]	MIC ([4]; UC1128, 24 H)	MIC ([4]; UC1128, 48 H)	MIC [5, 20]	MIC ([6]; 24 H, A 235, read-out: MIC)	MIC ([6]; 48 H, A 235, read-out: MIC)	MIC ([7]; 24 H)	MIC ([7]; 48 H)	MIC ([8]; A561, 24 h)	MIC ([8]; A561, 48 h)	MIC ([9]; UC1, 24 H)	MIC ([9]; UC1, 48 H)	MIC ([10]; 24 h)	MIC ([10]; 48 h)	MIC [11, 21]	MIC [11, 22]	MIC ([12]; UC1, 24 h)	MIC ([12]; UC1, 48 h)	MIC ([13]; 48 h, read-out: MIC)	other results
Nc1nc(CC(=O)NC2C(=O)N3C(C(=O)O)=C(CSC(=O)c4csc(=O)[nH]4)CSC23)cs1 (stereo not drawn) [Example 4, 7-[2-(2-amino-4-thiazolyl)-acetamido]-3-[{(2-oxo-(3H)-thiazolin-4-yl)-carbonyl}-thiomethyl]-ceph-3-eme-4-carboxylic acid]	0.1 µg/mL (≈ 0.195 µM)	0.2 µg/mL (≈ 0.389 µM)	1 µg/mL (≈ 1.95 µM)	1 µg/mL (≈ 1.95 µM)	10 µg/mL (≈ 19.5 µM)	0.6 µg/mL (≈ 1.17 µM)	0.6 µg/mL (≈ 1.17 µM)	3 µg/mL (≈ 5.84 µM)	3 µg/mL (≈ 5.84 µM)	0.1 µg/mL (≈ 0.195 µM)	0.2 µg/mL (≈ 0.389 µM)	0.2 µg/mL (≈ 0.389 µM)	0.5 µg/mL (≈ 0.974 µM)	2 µg/mL (≈ 3.89 µM)	3 µg/mL (≈ 5.84 µM)	0.5 µg/mL (≈ 0.974 µM)	1 µg/mL (≈ 1.95 µM)	1 µg/mL (≈ 1.95 µM)	1 µg/mL (≈ 1.95 µM)	10 µg/mL (≈ 19.5 µM)	MIC ([1]; UC1, 24 h): 2 µg/mL (≈ 3.89 µM); MIC ([1]; UC1, 48 h): 2 µg/mL (≈ 3.89 µM); MIC ([2]; 24 h, read-out: MIC): 0.1 µg/mL (≈ 0.195 µM); MIC ([2]; 48 h): 0.1 µg/mL (≈ 0.195 µM); MIC ([5]; Enterococcus faecalis, 5432, 48 h): > 40 µg/mL; MIC ([13]; 24 h): 5 µg/mL (≈ 9.74 µM)
Nc1nc(CC(=O)NC2C(=O)N3C(C(=O)O)=C(CSC(=O)c4ccco4)CS[C@H]23)cs1 (stereo partly drawn) [Example 5, 7-[2-(2-amino-4-thiazolyl)-acetamido]-3-[{(2-furyl)-carbonyl}thiomethyl]-ceph-3-eme-4-carboxylic acid]		1 µg/mL (≈ 2.08 µM)	1 µg/mL (≈ 2.08 µM)	2 µg/mL (≈ 4.16 µM)	5 µg/mL (≈ 10.4 µM)	2 µg/mL (≈ 4.16 µM)	2 µg/mL (≈ 4.16 µM)	10 µg/mL (≈ 20.8 µM)		0.1 µg/mL (≈ 0.208 µM)	0.1 µg/mL (≈ 0.208 µM)	0.5 µg/mL (≈ 1.04 µM)	1 µg/mL (≈ 2.08 µM)	10 µg/mL (≈ 20.8 µM)	10 µg/mL (≈ 20.8 µM)	1 µg/mL (≈ 2.08 µM)	1 µg/mL (≈ 2.08 µM)	2 µg/mL (≈ 4.16 µM)	2 µg/mL (≈ 4.16 µM)	10 µg/mL (≈ 20.8 µM)	MIC ([1]; UC1, 24 h, read-out: MIC): 10 µg/mL (≈ 20.8 µM); MIC ([1]; UC1, 48 h, read-out: MIC): 10 µg/mL (≈ 20.8 µM); MIC ([3]; Klebsiella pneumoniae, 52145, 24 h): 0.4 µg/mL (≈ 0.832 µM); MIC ([14]; ATCC6, 24 h): 0.2 µg/mL (≈ 0.416 µM); MIC ([14]; ATCC6, 48 h): 0.2 µg/mL (≈ 0.416 µM); MIC ([5]; Enterococcus faecalis, 5432, 48 h, read-out: MIC): 40 µg/mL (≈ 83.2 µM); MIC ([15]; ATCC6, 24 h, read-out: MIC): 0.5 µg/mL (≈ 1.04 µM); MIC ([15]; ATCC6, 48 h, read-out: MIC): 1 µg/mL (≈ 2.08 µM); MIC ([13]; 24 h, read-out: MIC): 10 µg/mL (≈ 20.8 µM)
CCC(=O)SCC1=C(C(=O)O)N2C(=O)C(NC(=O)Cc3csc(N)n3)[C@H]2SC1 (stereo partly drawn) [Example 6, 7-[2-(2-amino-4-thiazolyl)-acetamido]-3-propionylthiomethyl-ceph-3-eme-4-carboxylic acid]	3 µg/mL (≈ 6.78 µM)		1 µg/mL (≈ 2.26 µM)	1 µg/mL (≈ 2.26 µM)		10 µg/mL (≈ 22.6 µM)		5 µg/mL (≈ 11.3 µM)	5 µg/mL (≈ 11.3 µM)	0.2 µg/mL (≈ 0.452 µM)	0.2 µg/mL (≈ 0.452 µM)	0.6 µg/mL (≈ 1.36 µM)	0.6 µg/mL (≈ 1.36 µM)	40 µg/mL (≈ 90.4 µM)	40 µg/mL (≈ 90.4 µM)	1 µg/mL (≈ 2.26 µM)		10 µg/mL (≈ 22.6 µM)	10 µg/mL (≈ 22.6 µM)		MIC ([1]; UC1, 24 h, read-out: MIC): 10 µg/mL (≈ 22.6 µM); MIC ([1]; UC1, 48 h, read-out: MIC): 10 µg/mL (≈ 22.6 µM); MIC ([3]; Klebsiella pneumoniae, 52145, 48 h): 5 µg/mL (≈ 11.3 µM); MIC ([16]; 99F74, 24 h): 20 µg/mL (≈ 45.2 µM); MIC ([16]; 99F74, 48 h, read-out: MIC): 40 µg/mL (≈ 90.4 µM); MIC ([14]; ATCC6, 24 h): 0.1 µg/mL (≈ 0.226 µM); MIC ([14]; ATCC6, 48 h): 0.1 µg/mL (≈ 0.226 µM); MIC ([6]; 48 h): 20 µg/mL (≈ 45.2 µM); MIC ([17]; RG2532, 24 h): 10 µg/mL (≈ 22.6 µM); MIC ([17]; RG2532, 48 h): 10 µg/mL (≈ 22.6 µM); MIC ([11]; Staphylococcus aureus, 54146, 48 h): 2 µg/mL (≈ 4.52 µM); MIC ([15]; ATCC6, 24 h, read-out: MIC): 0.2 µg/mL (≈ 0.452 µM); MIC ([15]; ATCC6, 48 h): 0.4 µg/mL (≈ 0.904 µM)
